Measured values reported in US20220008425A1, “Pharmaceutical Composition for Treating B-Cell Lymphoma” (FUNDAN UNIVERSITY SHANGHAI CANER CENTER, priority 2018, published 2022).
“And” between values parts separate entries of the source, which are not always exact repeats. Equal entries are not always repeated. “Also recorded” adds a separate entry of the source.

Columns and labels:
[1] = test system: CD20 and mCRPs (CD46, CD55, CD59) in RCHO-resistant NU-DUL-1 cells; test: FACS analysis of membrane expression of CD46, CD55, CD59 and CD20; assay type: cell-based, human
Protocol: (§1) After being washed with PBS, cells were incubated with fluorescein-conjugated antibody for 30 minutes, followed by washing and resuspension of cells in PBS. Flow cytometry analysis was performed on a cytomics FC500 MPL instrument (Beckman Coulter, Inc., Brea, Calif.) and FlowJo software (Ashland, Inc., OR) was used for analysis. Cells were then sorted according to their relative fluorescence intensity by using a MoFlo XDP sorter (Beckman Coulter Inc., Brea, Calif.).

[2] = test system: CD20 and mCRPs (CD46, CD55, CD59) in RCHO-resistant LY8 cells; test: as above; assay type: cell-based, human
Protocol: as §1

LY8-RCHO cells [3] = details: 48 hours; for cytotoxicity (induction of cell death), inhibitor used alone: inhibitor alone at increasing concentrations; for reversal of resistance to CHO (cytotoxicity of CHO), inhibitor co-treated with CHO: inhibitor at increasing concentrations with CHO
Protocol: (§2) Further, we constructed LY8 and NU-DUL-1 cells resistant to chemotherapeutic drugs. Briefly, LY8-ORI and NU-DUL-1-ORI cells were treated with doxorubicin (Selleck Chemicals, Houston, Tex.) and vincristine (Selleck Chemicals, Houston, Tex.) at a clinical ratio of 50:1.4 by increasing the concentration. […] These cells were then treated with 2 μg/mL of 4-hydroperoxycyclophosphamide (4-HC) (Santa Cruz Biotechnology, Inc., Santa Cruz, Calif.) every 21 days for 3 cycles. The obtained CHO-resistant cells are referred to as LY8-CHO and NU-DUL-1-CHO, respectively. CHO-resistant cells were treated with doxorubicin, vincristine, and 4-HC every 22 days to maintain drug tolerance to CHO. […] To maintain RCHO resistance, LY8-RCHO cells and NU-DUL-1-RCHO cells were treated with 32 μg/mL of rituximab containing 20% (v/v) of NHS every 22 days, followed by treatment with doxorubicin, vincristine, and 4-HC. After 48 hours of treatment with doxorubicin, vincristine and 4-HC, drug resistance to CHO and RCHO was determined by a series of CCK-8 assays.
(§3) Cells were seeded in a 96-well plate at a density of 1×10^4/100 μL/well. Cells were pretreated with IPI-145, abemaciclib, AZD4547, PF-573228, R788, or saracatinib at increasing concentrations with or without CHO for 48 hours prior to performing CytoTox-Glo™ cytotoxicity assay. We performed cytotoxicity assay by using a CytoTox-Glo™ cytotoxicity assay kit (Promega Inc., Madison, Wis.) according to their instructions. Briefly, 50 μL of CytoTox-Glo™ cytotoxicity assay reagent was added to all wells, mixed by orbital shaking, and then incubated for 15 minutes at room temperature. Luminescence of experimental dead cells was detected with a Synergy HT microplate reader (BioTek, Biotek Winooski, Minn.), wherein 50 μL of lysate was added to all wells, mixed and incubated for 15 minutes at room temperature prior to detection of total luminescence. Cytotoxicity was calculated according to the following formula: Cytotoxicity (%)=Experimental dead cell luminescence/Total luminescence×100%.

NU-DUL-1-RCHO cells = details: 48 hours; for cytotoxicity (induction of cell death), inhibitor used alone: inhibitor alone at increasing concentrations; for reversal of resistance to CHO (cytotoxicity of CHO), inhibitor co-treated with CHO: inhibitor at increasing concentrations with CHO
Protocol: as §2, §3

LY8-RCHO-Luc cells = test: Transplantation model, bioluminescence tumor growth and survival; assay type: in vivo; details: SCID mice bearing LY8-RCHO-Luc cells
From the text: Construction of a transplantation model: we transduced LY8-RCHO cells and NU-DUL-1-RCHO cells with lentiviruses overexpressing the firefly luciferase gene to generate stable cells expressing firefly luciferase, referred to as LY8-RCHO-Luc cells and NU-DUL-1-RCHO-Luc cells, respectively. 8-week-old female SCID mice were purchased from SLAC (Shanghai laboratory animal center). The LY8-RCHO-Luc cells and NU-DUL-1-RCHO-Luc cells were resuspended in PBS prior to intraperitoneal injection of 1.5×10^7 cells per mouse. After intraperitoneal injection of the LY8-RCHO-Luc cells, mice were randomized into 6 groups (7 mice in every group) and given saline, R-CHOP, duvelisib, abemaciclib, R-CHOP+duvelisib, and R-CHOP+abemaciclib, respectively. Mice inoculated with the NU-DUL-1-RCHO-Luc cells were randomly divided into 6 groups (7 mice in every group), and were given saline, R-CHOP, duvelisib, AZD4547, R-CHOP+duvelisib, and R-CHOP+AZD4547, respectively. The drug dosing method based on one course of clinical use is shown in Table 1; the R-CHOP regimen was clinically used to treat DLBCL, while duvelisib, abemaciclib, and AZD4547 were tested in clinical trials (associated NCT numbers are NCT02576275, NCT01739309, and […], respectively). Tumor growth was monitored by bioluminescence at day 50 and day 90 after inoculation. For in vivo luminescence imaging, D-luciferin (Promega, Madison, Wis.) was intraperitoneally injected into mice (150 mg/kg). After 10 minutes, the mice were anesthetized by intraperitoneal injection of pentobarbital (50 mg/kg) and then their bioluminescence intensity was examined by using an In Vivo MS FX PRO system (Bruker Corporation, Billerica, Mass.). Luminescence images were captured with an exposure time of 30 seconds and the signal intensity of the tumor was measured by using Bruker MI software. The survival time of each mouse was recorded. Surviving mice were euthanized and dissected 120 days after inoculation and no intraperitoneal tumors were found. Tumor tissue was collected from moribund mice and fixed with 4% formalin. All animal experiments were performed in strict accordance with the experiment protocol approved by the animal ethics committee of Shanghai school of medicine of Fudan university.

LY8-RCHO cells [4] = test: CDC assay (rituximab-mediated complement-dependent cytotoxicity); assay type: cell-based, human; details: pre-treated with inhibitor 24 hours, then rituximab and 20% NHS 2 hours
Protocol: We constructed LY8 cells and NU-DUL-1 cells that are resistant to rituximab-mediated complement-dependent cytotoxicity (CDC). Briefly, original LY8 (LY8-ORI) cells and original NU-DUL-1 (NU-DUL-1-ORI) cells were treated with rituximab containing 20% (v/v) of NHS (Roche, Basel, Switzerland) with a concentration of gradually increasing from 4 μg/mL to 32 μg/mL to construct drug-resistant cells. […] Cytolysis induced by CDC was evaluated by detection of positive cells stained with propidium iodide (PI) through fluorescence activated cell sorting (FACS).

LY8-RCHO cells [5] = test: Aldefluor analysis (ALDH1+ cells); assay type: cell-based, human
Protocol: ALDH1 is a selectable marker for a variety of normal and cancer stem cells, including hematopoietic stem cells. Therefore, we assessed the number of cancer stem cells in hematopoietic malignancies by detecting ALDH1 positive cells. As previously described, we used an ALDEFLUOR™ kit (StemCell Technologies, Vancouver, BC, CA) to detect populations with high ALDH1 activity. Briefly, 1×10^6 cells were suspended in 1 mL of assay buffer containing 1 μM of BAAA, a substrate of […]. Suspended cells were then equally divided into two samples, one as a negative control and the other as a test sample. To form the negative control, […] of DEAB, a specific ALDH inhibitor, was added to one equally-divided sample. Cells were then incubated at 37° C. for 30 minutes prior to flow cytometry analysis.

LY8-RCHO cells [6] = test: EdU cell proliferation assay; assay type: cell-based, human; details: 1 μM
Protocol: RCHO-resistant DLBCL cells were pretreated with duvelisib, abemaciclib, or AZD4547 at a concentration of 1 μM for 48 or 120 hours prior to EdU assay. For 120 hours of the study, the medium was replaced with a fresh medium containing 1 μM of inhibitor at 48 hours. EdU cell proliferation assay was performed by using a cell-light EdU Apollo643 in vitro flow cytometry kit (RiboBio Inc., Guangzhou, China) according to its instructions. Next, we assayed EdU staining positive cells on a Cytomics FC500 MPL flow cytometer (Beckman Coulter, Brea, Calif.).

[7] = test system: AKT phosphorylation, SOX2, CDK6 and CSC-associated molecules in LY8-RCHO cells; test: Immunoblot analysis; assay type: cell-based, human

## NC1(c2ccc(-c3nc4ccn5c(=O)[nH]nc5c4cc3-c3ccccc3)cc2)CCC1 [MK-2206]
[1]
  membrane expression of CD20: significantly reduced
  membrane expression of the other three mCRPs (CD46, CD55, CD59): the other three mCRPs did not
[2]
  membrane expression of CD20: significantly reduced
  membrane expression of the other three mCRPs (CD46, CD55, CD59): the other three mCRPs did not

## CS(=O)(=O)c1cccc(CNc2nc(Nc3ccc4c(c3)CCC(=O)N4)ncc2C(F)(F)F)c1 [PF-573228]
LY8-RCHO cells [3]
  cytotoxicity (induction of cell death), inhibitor used alone: negligible effect on direct induction of cell death
  reversal of resistance to CHO (cytotoxicity of CHO), inhibitor co-treated with CHO: significantly reversed resistance of RCHO-resistant cells to CHO

## COc1cc(Nc2ncc(F)c(Nc3ccc4c(c3)N(COP(=O)(O)O)C(=O)C(C)(C)O4)n2)cc(OC)c1OC [R788]
NU-DUL-1-RCHO cells
  cytotoxicity (induction of cell death), inhibitor used alone: negligible effect on direct induction of cell death
  reversal of resistance to CHO (cytotoxicity of CHO), inhibitor co-treated with CHO: significantly reversed the resistance of RCHO-resistant cells to CHO
LY8-RCHO cells [3]
  cytotoxicity (induction of cell death), inhibitor used alone: negligible effect on direct induction of cell death
  reversal of resistance to CHO (cytotoxicity of CHO), inhibitor co-treated with CHO: significantly reversed the resistance of RCHO-resistant cells to CHO

## CCN1CCN(Cc2ccc(Nc3ncc(F)c(-c4cc(F)c5nc(C)n(C(C)C)c5c4)n3)nc2)CC1 [abemaciclib]
LY8-RCHO-Luc cells; inhibitor combined with R-CHOP, 7 mice per group
  day of death of the two mice that died: 62 days and 78 days
LY8-RCHO-Luc cells; inhibitor combined with R-CHOP, dosing per Table 1
  tumor growth (total photon flux): significantly inhibited tumor growth
LY8-RCHO-Luc cells; inhibitor combined with R-CHOP, experiment ended at day 120
  survival: prolonged the survival rate compared with R-CHOP or an inhibitor alone
LY8-RCHO-Luc cells; regimen or inhibitor used alone, vs saline, dosing per Table 1
  survival: neither duvelisib nor abemaciclib alone inhibited tumor growth or prolonged the survival rate
LY8-RCHO-Luc cells; regimen or inhibitor used alone, vs saline, dosing per Table 1, day 50 and 90
  tumor growth (total photon flux): neither duvelisib nor abemaciclib alone inhibited tumor growth or prolonged the survival rate
LY8-RCHO cells [4]
  effect on resistance to R-mediated CDC: failed to reverse resistance to R-mediated CDC
LY8-RCHO cells [5]
  proportion of ALDH1+ cells (CSCs): had no effect on ALDH1+ subpopulations in LY8-RCHO cells
LY8-RCHO cells [6]; 48 hours
  cell proliferation (EdU incorporation): prevented growth of LY8-RCHO cells at both 48 hours and 120 hours
LY8-RCHO cells [6]; 120 hours
  cell proliferation (EdU incorporation): prevented growth of LY8-RCHO cells at both 48 hours and 120 hours
LY8-RCHO cells [3]
  cytotoxicity (induction of cell death), inhibitor used alone: negligible effect on induction of cell death; also recorded: only negligible cytotoxicity on drug-resistant cells
  reversal of resistance to CHO (cytotoxicity of CHO), inhibitor co-treated with CHO: restored sensitivity of RCHO-resistant cells to CHO; also recorded: significantly enhanced cytotoxicity of CHO
[7]
  levels of CSC-associated molecules (OCT4, NANOG, KLF4, c-MYC, CD34, CD133): had no effect on its levels but resulted in a reduction in C-MYC

## CN1CCN(CCOc2cc(OC3CCOCC3)c3c(Nc4c(Cl)ccc5c4OCO5)ncnc3c2)CC1 [saracatinib]
NU-DUL-1-RCHO cells
  cytotoxicity (induction of cell death), inhibitor used alone: negligible effect on direct induction of cell death
  reversal of resistance to CHO (cytotoxicity of CHO), inhibitor co-treated with CHO: significantly reversed resistance of RCHO-resistant cells to CHO
LY8-RCHO cells [3]
  cytotoxicity (induction of cell death), inhibitor used alone: negligible effect on direct induction of cell death
  reversal of resistance to CHO (cytotoxicity of CHO), inhibitor co-treated with CHO: significantly reversed resistance of RCHO-resistant cells to CHO
